The NIST ThermoML archive (doi:10.1016/j.jct.2016.12.029)

Details: Gas, Buoyancy - hydrostatic balance with magnetic suspension - one sinker

C=C(F)C(F)(F)F [2,3,3,3-tetrafluoro-1-propene]
Details	mass density [kg/m3]
265.46 K, 101.2 kPa	5.404
265.48 K, 207.2 kPa	11.507
270.36 K, 101 kPa	5.279
270.38 K, 164.6 kPa	8.792
270.38 K, 250.3 kPa	13.798
275.39 K, 106.2 kPa	5.448
275.4 K, 208.6 kPa	11.064
275.42 K, 303.7 kPa	16.657
280.28 K, 103.6 kPa	5.208
280.29 K, 176.6 kPa	9.076
280.29 K, 274 kPa	14.527
280.29 K, 356.2 kPa	19.43
285.27 K, 258.8 kPa	13.34
285.28 K, 104.7 kPa	5.162
285.28 K, 164.2 kPa	8.23
285.28 K, 358.5 kPa	19.078
290.38 K, 102.2 kPa	4.937
290.39 K, 184.5 kPa	9.113
290.4 K, 308.8 kPa	15.792
290.4 K, 421.2 kPa	22.298
295.4 K, 101.7 kPa	4.829
295.4 K, 196.9 kPa	9.565
295.4 K, 400.6 kPa	20.565
295.4 K, 600.7 kPa	32.885
295.41 K, 305.3 kPa	15.255
295.41 K, 510.2 kPa	27.092
300.2 K, 668.8 kPa	36.434
300.21 K, 108 kPa	5.039
300.21 K, 218.9 kPa	10.489
300.21 K, 324 kPa	15.933
300.21 K, 439.4 kPa	22.291
300.21 K, 545.8 kPa	28.564
